How the values were obtained:
[1] = system: cytochrome-P450-dependent aromatase; settings: marine gastropods; Bettin et al. 1995; cited from earlier work
[2] = system: pdr5yor1snq2 triple-mutant yeast strain; assay: Growth and fluorescence test in the presence of inhibitors, pdr5yor1snq2 triple-mutant strain; format: cell-based, Saccharomyces cerevisiae; settings: 0.05 and 0.5 ng/ml mitomycin C, 0.01 and 0.1 ng/ml TPhT, 30° C., 8 hours
[3] = system: pma1-DsRed1 reporter in yeast strain HLY5RG-12B2; assay: Cytotoxic signaling: DsRed1 under pma1 promoter, red fluorescence; settings: depending on concentration: mitomycin C 0.05 and 0.5 ng/ml, TPhT 0.01 and 0.1 ng/ml, 8 hours, 30° C.
Procedure: (§1) Cultures of Saccharomyces cerevisiae wild strain, of the pdr5yor1snq2 triple-mutant yeast strain and of the genotoxically and cytotoxically signaling strain HLY5RG-12B2 expressing Dsred and egfp were grown in complete medium YPD (2% yeast extract, 1% peptone) with 2% D-glucose, pH 5.0, at 30° C. over night with shaking.
For the cytotoxic substance testing, a spectral excitation at 558 nm was performed, and the intensity of the emission maxima at 583 nm (specific of DsRedp) was measured for all cell suspensions. In addition, a determination of the simple growth of the cells by measuring the optical density at 600 nm was performed.

[4] = system: Saccharomyces cerevisiae wild strain; assay: Growth and fluorescence test in the presence of inhibitors, wild strain; format: cell-based; settings: 0.05 and 0.5 ng/ml mitomycin C, 0.01 and 0.1 ng/ml TPhT, 30° C., 8 hours
[5] = system: rad54::egfp reporter in yeast strain HLY5RG-12B2; assay: Genotoxic signaling: egfp under rad54 promoter, green fluorescence; settings: depending on concentration: mitomycin C 0.05 and 0.5 ng/ml, TPhT 0.01 and 0.1 ng/ml, 8 hours, 30° C.
Procedure: as §1
Subsequently, a spectral excitation at 489 nm was performed for the genotoxic substance testing, and the intensity of the emission maxima at 508 nm (specific of egfp) was measured for all cell suspensions.

Substance | effect on aromatization of androgens into estrogens [1] | growth rate (doubling time) [2] [min] | specific red (583 nm) or green (508 nm) fluorescence [2] | red fluorescence, emission maximum 583 nm (cytotoxic potential) [3] | growth rate (doubling time) [4] [min] | specific red (583 nm) or green (508 nm) fluorescence [4] | green fluorescence, emission maximum 508 nm (genotoxic potential) [5]
tributyltin [TBT] | inhibits the aromatization of androgens into estrogens | – | – | – | – | – | –
triphenyltin [TPhT] | – | 180 | without showing a specific red (cytotoxic potential) or green (genotoxic potential) fluorescence | increasing specific red fluorescence | 90 | without showing a specific red (cytotoxic potential) or green (genotoxic potential) fluorescence | no increasing green fluorescence
